Experimental findings from ChEMBL document CHEMBL1131718, “Syntheses of (+/-)-shinflavanone and its structural analogues as potent inhibitors of bone resorption pits formation” (Bioorg Med Chem Lett, 1999) are described below.

Common to all, as to type: functional
Test [1] is described as follows: Bone resorption pits formation by osteoclast-like cell(OCL) induced by 1-alpha,25-dihydroxy vitamin D3 at 0.37 ug/ml concentration.
Test [2] in a line: Ability to inhibit the resorption pits formation by osteoclast-like cell(OCL) induced by 1-alpha,25-dihydroxy vitamin D3 at conc. 1.11 ug/ml.
Test [3] is described as follows: Bone resorption pits formation by osteoclast-like cell(OCL) induced by 1-alpha,25-dihydroxy vitamin D3 at 10 ug/ml concentration.
A short description of test [4]: Ability to inhibit the resorption pits formation by osteoclast-like cell(OCL) induced by 1-alpha,25-dihydroxy vitamin D3 at conc. 10.00 ug/ml.
Test [5] in a line: Bone resorption pits formation by osteoclast-like cell(OCL) induced by 1-alpha,25-dihydroxy vitamin D3 at 1.11 ug/ml concentration.
The nature of test [6]: Ability to inhibit the resorption pits formation by osteoclast-like cell(OCL) induced by 1-alpha,25-dihydroxy vitamin D3.
A short description of test [7]: Cytotoxicity of compound was measured on osteoclastic cells.
A short description of test [8]: Ability to inhibit the resorption pits formation by osteoclast-like cell(OCL) induced by 1-alpha,25-dihydroxy vitamin D3 at conc. 3.33 ug/ml.
A short description of test [9]: Ability to inhibit the resorption pits formation by osteoclast-like cell(OCL) induced by 1-alpha,25-dihydroxy vitamin D3 at conc. 0.37 ug/ml.
Test [10] in a line: Bone resorption pits formation by osteoclast-like cell(OCL) induced by 1-alpha,25-dihydroxy vitamin D3 at 3.33 ug/ml concentration.

≈ marks a conversion by molar mass, not a printed value. A value given as a limit tells only on which side of the number the result lay.

By inhibition is commonly meant the drop in the measured response relative to a control, in per cent. Low values mean a response near the control, high ones a response far below the control. The term IC50 denotes the point on the concentration scale where inhibition reaches its midpoint. Higher therefore signals lower potency. The term CC50 denotes the concentration at which the toxic effect on the cells reaches its halfway point. Low readings indicate greater toxicity to the cells, high ones lower toxicity to the cells. For `CC(C)=CCc1cc(C2CC(=O)c3cc(CC=C(C)C)c(O)cc3O2)ccc1O` (centres undefined), the No. of pits in [1] came to 112; in [3], 23; in [5], 87; in test [10] it was 84. Besides, 1.11 µg/mL produced 41.2% inhibition in test [2]. The compound also showed an inhibition at 10 µg/mL in test [4] of 84.2%. This compound yielded an IC50 in test [6] of 5.7 µg/mL (≈ 14.5 µM). The CC50 in [7] was 18.2 µg/mL (≈ 46.4 µM). In addition, in test [8], the inhibition at 3.33 µg/mL was 41.3%. Also, at 0.37 µg/mL the inhibition in test [9] was 21.7%.
Consider `CC(C)=CCc1cc(C2CC(=O)c3ccc4c(c3O2)C=CC(C)(C)O4)ccc1O` (centres undefined), for which the No. of pits in test [1] is 74; in test [3], 32; in test [5], 68; in test [10], 54. In [2], this compound had an inhibition at 1.11 µg/mL of 54.1%. Also, in test [4], 10 µg/mL produced 78.1% inhibition. The compound also showed a half-maximal inhibitory concentration (IC50) in [6] of 0.7 µg/mL (≈ 1.79 µM). Also, the CC50 in test [7] came out at 16.8 µg/mL (≈ 43 µM). In test [8], this compound yielded an inhibition at 3.33 µg/mL of 62.2%. In test [9], this compound had an inhibition at 0.37 µg/mL of 48.3%.
As for `CC(C)=CCc1cc(C2CC(=O)c3cc(CC=C(C)C)c(O)c(CC=C(C)C)c3O2)ccc1O` (centres undefined), the No. of pits in [1] came to 150; in test [3], 80; in test [5], 120; in test [10] it was 108. In test [2], this compound came in with an inhibition at 1.11 µg/mL of 18.9%. The compound also came in with an inhibition at 10 µg/mL in test [4] of 45.2%. The compound further had an IC50 in [6] of 10.9 µg/mL (≈ 23.7 µM). Moreover, the CC50 in test [7] came to 10.4 µg/mL (≈ 22.6 µM). Moreover, at 3.33 µg/mL the inhibition in test [8] was 24.4%. The inhibition at 0.37 µg/mL in test [9] is under 5%.
`CO[C@H]1[C@@H](OC)C[C@H](C)[C@@H](OC)C2=CC(=O)C=C(NC(=O)/C(C)=C/C=C/[C@H](OC)[C@@H](OC(N)=O)/C(C)=C/[C@@H]1C)C2=O` [HERBIMYCIN] yielded an inhibition at 1.11 µg/mL in test [2] of 50.7%. Further, the IC50 in [6] was 1.1 µg/mL (≈ 1.91 µM). The CC50 in test [7] is 1.72 µg/mL (≈ 2.99 µM). The same compound returned an inhibition at 0.37 µg/mL in [9] of 37.8%.
